Experimental data: BindingDB's records for doi:10.1038/sj.bjp.0702632 (Roche Bioscience, 1999)

How the values were obtained:
[1] = biological target: 5-hydroxytryptamine receptor 2B (Homo sapiens, UniProt P41595)
[2] = biological target: 5-hydroxytryptamine receptor 5A (Homo sapiens, UniProt P47898)
[3] = biological target: 5-hydroxytryptamine receptor 6 (Homo sapiens, UniProt P50406)
[4] = biological target: 5-hydroxytryptamine receptor 2A (Homo sapiens, UniProt P28223)
[5] = biological target: T1, 5-hydroxytryptamine receptor 2C (Homo sapiens, UniProt P28335)
T1 sequence (P28335 whole entry): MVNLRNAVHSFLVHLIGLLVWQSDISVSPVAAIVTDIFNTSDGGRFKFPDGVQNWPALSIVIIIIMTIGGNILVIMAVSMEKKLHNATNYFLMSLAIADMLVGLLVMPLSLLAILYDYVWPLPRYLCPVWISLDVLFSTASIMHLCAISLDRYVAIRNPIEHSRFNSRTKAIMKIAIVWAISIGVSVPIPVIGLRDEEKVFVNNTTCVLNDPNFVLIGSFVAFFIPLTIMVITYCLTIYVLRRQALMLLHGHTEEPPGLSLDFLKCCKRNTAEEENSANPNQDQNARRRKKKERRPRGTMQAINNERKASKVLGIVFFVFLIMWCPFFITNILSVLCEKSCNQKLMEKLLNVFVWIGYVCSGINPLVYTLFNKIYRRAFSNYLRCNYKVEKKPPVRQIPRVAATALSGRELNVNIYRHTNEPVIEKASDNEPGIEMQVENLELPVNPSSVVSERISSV

[6] = biological target: T2, 5-hydroxytryptamine receptor 3A (Homo sapiens, UniProt P46098)
T2 sequence (P46098 whole entry): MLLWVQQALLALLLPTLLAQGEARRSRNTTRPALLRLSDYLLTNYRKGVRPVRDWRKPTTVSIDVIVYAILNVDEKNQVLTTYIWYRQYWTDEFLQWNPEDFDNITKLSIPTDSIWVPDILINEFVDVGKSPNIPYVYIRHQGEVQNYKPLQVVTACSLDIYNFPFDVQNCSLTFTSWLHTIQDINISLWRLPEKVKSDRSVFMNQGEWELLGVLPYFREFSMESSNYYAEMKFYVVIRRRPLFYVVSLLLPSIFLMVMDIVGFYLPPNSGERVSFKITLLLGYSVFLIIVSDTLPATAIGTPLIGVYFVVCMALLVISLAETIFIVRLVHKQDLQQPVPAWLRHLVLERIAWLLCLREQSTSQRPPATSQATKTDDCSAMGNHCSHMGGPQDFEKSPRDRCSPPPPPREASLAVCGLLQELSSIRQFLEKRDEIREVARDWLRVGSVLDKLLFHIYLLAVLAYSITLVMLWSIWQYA

Sequence of 5-hydroxytryptamine receptor 2B (P41595 whole entry): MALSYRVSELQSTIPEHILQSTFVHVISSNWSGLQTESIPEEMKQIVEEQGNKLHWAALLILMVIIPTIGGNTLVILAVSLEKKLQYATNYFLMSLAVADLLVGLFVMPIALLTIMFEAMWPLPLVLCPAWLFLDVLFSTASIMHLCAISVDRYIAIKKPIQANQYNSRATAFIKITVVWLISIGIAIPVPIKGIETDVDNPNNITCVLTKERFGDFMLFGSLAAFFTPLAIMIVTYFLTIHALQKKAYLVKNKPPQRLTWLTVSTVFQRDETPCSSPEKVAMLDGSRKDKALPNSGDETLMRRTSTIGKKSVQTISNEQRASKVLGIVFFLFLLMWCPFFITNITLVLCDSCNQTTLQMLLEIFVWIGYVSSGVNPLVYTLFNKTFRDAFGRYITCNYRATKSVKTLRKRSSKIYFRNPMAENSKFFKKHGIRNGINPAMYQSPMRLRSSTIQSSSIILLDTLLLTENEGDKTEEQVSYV
Sequence of 5-hydroxytryptamine receptor 5A (P47898 whole entry): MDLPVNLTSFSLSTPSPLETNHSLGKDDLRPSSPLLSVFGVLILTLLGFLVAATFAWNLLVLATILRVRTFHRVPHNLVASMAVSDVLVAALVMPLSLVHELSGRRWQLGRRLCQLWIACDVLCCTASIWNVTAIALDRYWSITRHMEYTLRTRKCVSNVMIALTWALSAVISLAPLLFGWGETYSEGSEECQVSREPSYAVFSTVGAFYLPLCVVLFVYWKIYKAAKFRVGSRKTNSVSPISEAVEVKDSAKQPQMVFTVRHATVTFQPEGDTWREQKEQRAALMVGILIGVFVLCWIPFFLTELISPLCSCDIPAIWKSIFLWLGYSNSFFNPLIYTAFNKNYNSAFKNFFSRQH
Sequence of 5-hydroxytryptamine receptor 6 (P50406 whole entry): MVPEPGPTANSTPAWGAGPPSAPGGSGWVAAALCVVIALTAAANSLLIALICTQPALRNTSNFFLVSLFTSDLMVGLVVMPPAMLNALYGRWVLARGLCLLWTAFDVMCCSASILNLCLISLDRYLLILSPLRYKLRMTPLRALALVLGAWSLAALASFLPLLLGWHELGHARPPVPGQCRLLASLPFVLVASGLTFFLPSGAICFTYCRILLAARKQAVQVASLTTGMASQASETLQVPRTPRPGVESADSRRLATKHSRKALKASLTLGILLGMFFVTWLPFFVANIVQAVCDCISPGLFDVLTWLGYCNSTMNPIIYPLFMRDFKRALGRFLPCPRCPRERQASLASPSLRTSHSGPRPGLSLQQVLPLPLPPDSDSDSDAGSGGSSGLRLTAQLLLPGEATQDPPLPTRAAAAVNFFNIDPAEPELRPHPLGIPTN
Sequence of 5-hydroxytryptamine receptor 2A (P28223 whole entry): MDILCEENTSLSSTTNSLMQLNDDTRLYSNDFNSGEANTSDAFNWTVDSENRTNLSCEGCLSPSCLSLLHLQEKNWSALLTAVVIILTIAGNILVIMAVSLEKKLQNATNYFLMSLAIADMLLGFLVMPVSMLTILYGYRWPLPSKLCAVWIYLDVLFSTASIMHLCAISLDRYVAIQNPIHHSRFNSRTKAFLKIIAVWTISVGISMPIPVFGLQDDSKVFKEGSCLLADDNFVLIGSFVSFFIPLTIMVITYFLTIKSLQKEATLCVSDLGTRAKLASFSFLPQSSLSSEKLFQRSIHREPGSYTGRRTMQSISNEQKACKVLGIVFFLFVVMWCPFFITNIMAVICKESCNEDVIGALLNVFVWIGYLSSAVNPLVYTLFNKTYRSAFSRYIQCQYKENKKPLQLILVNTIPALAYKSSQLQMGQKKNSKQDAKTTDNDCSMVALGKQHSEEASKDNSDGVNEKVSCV

Ki [1] [nM]	Ki [2] [nM]	Ki [3] [nM]	Ki [4] [nM]	Ki [5] [nM]	Ki [6] [nM]	SMILES
0.32	1000	1000	501	398	1000	CC(C)c1cc(-c2ccc(F)c3ccccc23)nc(N)n1 [RS-127445]
1						COc1ccc(CC2NCCc3c2[nH]c2ccccc32)cc1OC (stereo not drawn) [LY-23728]
1						Cc1nc2sccn2c(=O)c1CCN1CCC(=C(c2ccc(F)cc2)c2ccc(F)cc2)CC1
